Activity calls are given as the source filed them.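 The calls were made as follows: active = compounds whose fitted half-maximal concentration for changing the GFP signal is at or below a set limit; inactive = the rest.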
Assay: TOR pathway RPL19A-GFP modulators, concentration series – cell-based, S. cerevisiae, flow cytometry, MLPCN hits, dose response (AID 2740);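 also: background is signal of the same compound in parental non-GFP s288c yeast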
Conditions: S. cerevisiae RPL19A-GFP strain, flow cytometry fluorescence, 3 h; at 33 µM (top of the series)

Row | SMILES | GFP fluorescence, lower = active (kMESF (background-subtracted))
1 | Cc1sc(/C=C2\C(=O)ON=C2c2ccccc2)cc1Br | 45 (inactive)
2 | Cc1ccc(-c2nc(C)sc2CC(=O)Nc2nnc(C)s2)cc1 | 37.9 (inactive)
3 | Cc1[nH]c(-c2ccccn2)nc(=S)c1Cl | 30.8 (inactive)
4 | O=C1/C(=C\c2ccc(O)c(O)c2)SC(=S)N1Cc1ccccc1 | 1.52 (inactive)
5 | CCOC(=O)C1=C(O)c2ccccc2C(=O)/C1=C\c1ccc(C)cc1 | -7.18 (inactive)
6 | CN(C)c1ccc(N=Cc2nc(-c3ccccc3)oc2OC(=O)c2ccccc2)cc1 | 44.1 (inactive)
7 | Nc1ccc2ccc3cccc[n+]3c2c1 | 45.9 (inactive)
8 | CCOc1ccc(N2C(=O)C(Cl)=C(Nc3ccccc3O)C2=O)cc1 | 45.1 (inactive)
9 | O=S1(=O)C=C(Sc2nc3ccccc3s2)c2ccccc21 | 36 (inactive)
10 | CCN(CC)c1ccc(/C=C2\C(=O)c3ccc(C(=O)O)cc3C2=O)cc1 | 51.5 (inactive)
11 | CCc1ccc(C(=O)/C=C/c2ccc([N+](=O)[O-])o2)cc1 | 48.7 (inactive)
12 | Cc1ccsc1/C=C1\C(=O)NC(=S)N(C)C1=O | 19.6 (inactive)
13 | N#Cc1nccnc1S(=O)(=O)c1cccs1 | 35.5 (inactive)
14 | CCOC(=O)CS(=O)(=O)c1nc(-c2ccc(F)cc2)cc(C(F)(F)F)n1 | 46.7 (inactive)
15 | COc1cc(C=C2C(=O)c3ccccc3C2=O)cc(OC)c1 | 41.6 (inactive)
16 | O=C(CS(=O)c1ccccc1[N+](=O)[O-])Oc1ccc(Br)cc1 (centres undefined) | 39.1 (inactive)
17 | CC(=O)Oc1oc(-c2ccccc2)nc1C=Nc1ccccc1 | 39.7 (inactive)
18 | CN(C)c1ccc(/C=C/c2cc[n+](C)cc2)cc1 | 44.5 (inactive)
19 | CCCc1ccc(OCC(=O)NNC(=S)NC(=O)c2ccco2)cc1 | 30.3 (inactive)
20 | Cc1ccc(-c2nc(N)c3c(-c4ccc(C)cc4)nn(C(C)(C)C)c3n2)cc1 | 43.1 (inactive)

Row | SMILES | GFP fluorescence, lower = active (kMESF (background-subtracted))
21 | CCOC(=O)CS(=O)(=O)c1nc(-c2ccccc2)cc(C(F)(F)F)n1 | 44.1 (inactive)
22 | CC(Oc1cc2oc(=O)c3c(c2cc1Cl)CCC3)C(=O)NCCN1CCOCC1 (centres undefined) | 37.8 (inactive)
23 | COc1ccc(N2CCN(C(=O)c3ccc(Br)cc3)CC2)c([N+](=O)[O-])c1 | 47.4 (inactive)
24 | Cc1cc(C)c(OCC(=O)Nc2nc(-c3ccccn3)cs2)c(C)c1 | 39.3 (inactive)
25 | CC1(C(=O)NC(=S)NNC(=O)c2ccncc2)CCCCC1 | 39.9 (inactive)
26 | O=C(Nc1nnc(-c2ccc(F)cc2)o1)c1cccc([N+](=O)[O-])c1 | 43.5 (inactive)
27 | Cc1ccc2[nH]c(C)c(/C=C/c3cc[n+](C)cc3)c2c1 | 37.4 (inactive)
28 | O=[N+]([O-])c1cc(F)c2cccnc2c1O | 25.6 (inactive)
29 | CC(=O)n1cc(C(C[N+](=O)[O-])SCCN)c2ccccc21 (centres undefined) | 21.4 (inactive)
30 | Cc1[nH]c2ccccc2c1C(=O)COC(=O)c1ccc([N+](=O)[O-])s1 | 13.6 (inactive)
31 | O=C(/C=C/c1ccccc1Cl)c1ccccc(=O)c1O | 5.26 (inactive)
32 | Clc1cccc(CN2COc3c(cc(Cl)c4cccnc34)C2)c1 | 36.5 (inactive)
33 | CC(=O)c1ccc(N2CCN(C(=O)c3ccc(Br)cc3)CC2)c(F)c1 | 46.1 (inactive)
34 | Nc1c(C(=O)c2cccs2)sc2nsc(SCCN3CCCCC3)c12 | 38.1 (inactive)
35 | Cc1cc(/C=C2/SC(=S)N(c3cccc(Cl)c3)C2=O)c(C)n1-c1cccnc1 | 42.7 (inactive)
36 | Cc1c(C)c2ccc(Oc3ccc([N+](=O)[O-])cc3C(F)(F)F)c(C)c2oc1=O | 39.5 (inactive)
37 | CCOc1ccc(NC2=C(Cl)C(=O)N(Cc3ccccc3)C2=O)cc1 | 44.3 (inactive)
38 | Cc1nn2c(NCc3ccccn3)c3c(nc2c1-c1ccccc1)CCC3 | 44.3 (inactive)
39 | COc1ccc(C(=O)/C=C2/C(=O)Nc3ccccc32)cc1 | 38 (inactive)
40 | CN(O)/C=c1/ccc2c(n1)C(=O)C=CC=2 | 39.2 (inactive)

Row | SMILES | GFP fluorescence, lower = active (kMESF (background-subtracted))
41 | CCC1(c2ccccc2)ON(c2c(Br)cccc2Br)C1=O (centres undefined) | 34.8 (inactive)
42 | COc1ccc(OC)c(S(=O)(=O)ON2C(=O)c3ccccc3C2=O)c1 | 25.6 (inactive)
43 | COc1ccc(N=Nc2ccc(O)c3ncccc23)cc1 | 37.9 (inactive)
44 | CCN(CC)c1ccc(/C=C2/C(=O)c3ccc(C(=O)O)cc3C2=O)cc1 | 38.3 (inactive)
45 | CCOc1ccc(C(Nc2cccnc2)c2cc(Cl)c3cccnc3c2O)cc1 (centres undefined) | 28.3 (inactive)
46 | CCCCCCCCC/C(=N\O)c1ccccn1 | 38.8 (inactive)
47 | Cc1ccccc1OCC(=O)NNC(=S)NC(=O)c1ccco1 | 44.1 (inactive)
48 | Cc1cc(=O)oc2cc(Oc3ccc([N+](=O)[O-])cc3C(F)(F)F)ccc12 | 44.2 (inactive)
49 | O=C1NC(=O)N(c2ccccc2)C(=O)/C1=C/c1ccc(Sc2ccccc2)o1 | 37.1 (inactive)
50 | Cc1cc(C(=O)COC(=O)c2ccc[nH]c2=O)c(C)n1-c1ccccc1F | 28.1 (inactive)
51 | O=C(Nc1ccc(O)cc1)C1CCCN1S(=O)(=O)c1ccc(F)cc1 (centres undefined) | 45 (inactive)
52 | Cc1cccc(N=C2NC(=O)/C(=C/C=C/c3ccco3)S2)c1C | 34.7 (inactive)
53 | O=C(Oc1c(Cl)cc(Cl)c2cccnc12)c1cccc([N+](=O)[O-])c1 | 24.8 (inactive)
54 | CC(=O)Oc1ccc(/C=c2\sc3ncnn3c2=O)cc1 | 50 (inactive)
55 | C/C(=N\NC(=O)c1cc2ccccc2cc1O)c1ccccn1 | 45.5 (inactive)
56 | CC(=O)N(C1=C(Cl)C(=O)c2ccccc2C1=O)C1CCCCC1 | -1.82 (inactive)
57 | CCCc1nnc(NC(=O)c2c(O)c3cccc4c3n(c2=O)CCC4)s1 | 14.6 (inactive)
58 | O=C1CC(c2ccccc2)=NN1c1nc(-c2ccccc2)cs1 | 19.4 (inactive)
59 | Cc1cc(C)c(S(=O)(=O)ON2C(=O)c3ccccc3C2=O)cc1C | 25.8 (inactive)
